System: Hedgehog pathway
Experiment: Hedgehog Pathway Cellular Differentiation Assay (alkaline phosphatase production in C3H10T1/2 cells with Shh ligand)
Assay type: cell-based
Conditions: Shh ligand conditioned media, 72 h, alkaline phosphatase; for inhibition at 3 µM: Mus musculus, C3H 10T1/2, 3 μM compound; for % Inhibition at 3 μM: 3 μM compound
Protocol: Hedgehog Pathway Cellular Differentiation Assay The ability of compounds of the invention to inhibit the Hedgehog pathway can be determined by the following cell differentiation assay. C3H10T1/2 cells were plated into 384 well plates at a concentration of 5000 cells/well in DMEM/10% FBS. The following day the media was changed to 20% conditioned media (low serum media DMEM/2% FBS+Shh ligand). Compounds were solubilized in 100% DMSO to a concentration of 10 mM and then serially diluted three fold in 100% DMSO. The highest concentration in the cell plate was 30 μM and the lowest was 3 nM. The compounds were then added to the cells. Cell plates were incubated with the compound for 72 h and then assayed for alkaline phosphatase production using pNp as a substrate. Briefly, after 72 h of incubation, the media was aspirated from the cells and washed with 30 μl of PBS. PBS was aspirated off the cells and 15 μl of 1×RIPA cell lysis buffer is added on to the cells. The cell plates are then incubated at −80° C. for 30 minutes to insure proper cell lysis. The plates were then thawed back to RT. The substrate solution containing pNp at 1 mg/mL in diethanolamine buffer pH 9.8 was then added onto the lysed cells. The plates were incubated at 30° C. for color development and read at an absorbance of 405 nm. The percent inhibition and IC50 value was then calculated from the absorbance data using standard procedures.

Row | SMILES | inhibition at 3 µM [%] | % Inhibition at 3 μM [%]
1 | Cc1nc(-c2ccc(C)c(NC(=O)c3ccc(OCc4ccccn4)cc3)c2)no1 [Example 40, N-(2-methyl-5-(5-methyl-1,2,4-oxadiazol-3-yl)phenyl)-4-(pyridin-2-ylmethoxy)benzamide] | 6.5 | 
2 | Cc1ccc(-c2c(C)nn(C)c2C)cc1NC(=O)c1ccc(OCc2ccccn2)cc1 [Example 35, N-[2-methyl-5-(1,3,5-trimethylpyrazol-4-yl)phenyl]-4-(pyridin-2-ylmethoxy)benzamide] | 76.8 | 
3 | Cc1ccc(-c2cnc(C)n2C)cc1NC(=O)c1ccc(OCc2ccccc2C#N)cc1 [Example 55, 4-[(2-cyanophenyl)methoxy]-N-[5-(2,3-dimethylimidazol-4-yl)-2-methyl-phenyl]benzamide] | 84.3 | 
4 | COc1ccnc(COc2ccc(C(=O)Nc3cc(-c4ncc[nH]4)ccc3C)cc2)c1 [Example 92, N-[5-(1H-imidazol-2-yl)-2-methylphenyl]-4-[(4-methoxypyridin-2-yl)methoxy]benzamide] | 76 | 
5 | Cc1ccc(-c2ncc[nH]2)cc1NC(=O)c1ccc(NCc2ccccn2)cc1 [Example 117, N-(5-(1H-imidazol-2-yl)-2-methylphenyl)-4-(pyridin-2-ylmethylamino)benzamide] | 68.8 | 
6 | Cc1ccc(-c2nccn2Cc2ncccc2Br)cc1NC(=O)c1ccc(OCc2ncccc2Br)cc1 [Example 121, 4-[(3-bromopyridin-2-yl)methoxy]-N-(5-{1-[(3-bromopyridin-2-yl)methyl]-1H-imidazol-2-yl}-2-methylphenyl)benzamide] | 77.8 | 
7 | Cc1ccc(-c2ncc[nH]2)cc1NC(=O)c1ccc(N2CCOCC2)nc1 [Example 153, N-[5-(1H-imidazol-2-yl)-2-methyl-phenyl]-6-morpholin-4-yl-pyridine-3-carboxamide] | 53.7 | 
8 | Cc1ccc(-c2cn(C)cn2)cc1NC(=O)c1ccc(OCc2ccccn2)cc1 [Example 21, N-[2-methyl-5-(1-methyl-1H-imidazol-4-yl)phenyl]-4-(pyridin-2-ylmethoxy)benzamide] | 73.4 | 
9 | Cc1ccc(-c2nc(C3CC3)c[nH]2)cc1NC(=O)c1ccc(OCc2ccccn2)cc1 [Example 87, N-[5-(4-cyclopropyl-1H-imidazol-2-yl)-2-methylphenyl]-4-(pyridin-2-ylmethoxy)benzamide] | 74.8 | 
10 | Cc1ccc(-c2ncc[nH]2)cc1NC(=O)c1ccc(COc2ccccn2)cc1 [Example 134, N-[5-(1H-imidazol-2-yl)-2-methylphenyl]-4-[(pyridin-2-yloxy)methyl]benzamide] | 77.3 | 
11 | Cc1ccc(-c2ncc[nH]2)cc1NC(=O)c1ccc(NC(C)c2ccccn2)cc1 (stereo not shown) [Example 118, N-[5-(1H-imidazol-2-yl)-2-methylphenyl]-4-[(1-pyridin-2-ylethyl)amino]benzamide] | 75.4 | 
12 | Cc1cc(Cl)c(-c2cn(C)cn2)cc1NC(=O)c1ccc(OCc2ccccn2)cc1 [Example 75, N-[4-chloro-2-methyl-5-(1-methyl-1H-imidazol-4-yl)phenyl]-4-(pyridin-2-ylmethoxy)benzamide] | 77.8 | 
13 | Cc1ccc(-c2ncc[nH]2)cc1NC(=O)c1ccc(OCc2cc(N3CCN(C)CC3)ccn2)cc1 [Example 126, N-[5-(1H-imidazol-2-yl)-2-methylphenyl]-4-{[4-(4-methylpiperazin-1-yl)pyridin-2-yl]methoxy}benzamide] | 47.2 | 
14 | Cc1ccc(-c2nc3ccccc3[nH]2)cc1NC(=O)c1ccc(OCc2ccccn2)cc1 [Example 30, N-[5-(1H-benzoimidazol-2-yl)-2-methyl-phenyl]-4-(pyridin-2-ylmethoxy)benzamide] | 80.1 | 
15 | COc1ccnc(COc2ccc(C(=O)Nc3cc(-c4nccn4C)ccc3C)cc2)c1 [Example 93, 4-[(4-methoxypyridin-2-yl)methoxy]-N-[2-methyl-5-(1-methyl-1H-imidazol-2-yl)phenyl]benzamide] | 79.9 | 
16 | Cc1ccc(-c2ncc[nH]2)cc1NC(=O)c1ccc(OCc2cccc(OCCO)n2)cc1 [Example 122] |  | 84.6
17 | Cc1cn(C)c(-c2ccc(C)c(NC(=O)c3ccc(OCc4ccccc4C#N)cc3)c2)n1 [Example 45, 4-[(2-cyanophenyl)methoxy]-N-[5-(1,4-dimethylimidazol-2-yl)-2-methyl-phenyl]benzamide] | 80.3 | 
18 | Cc1ccc(-c2ncc[nH]2)cc1NC(=O)c1ccc(OCc2ncccc2N2CCN(C)CC2)cc1 [Example 138, N-(5-(1H-imidazol-2-yl)-2-methylphenyl)-4-((3-(4-methylpiperazin-1-yl)pyridin-2-yl)methoxy)benzamide] | 42.2 | 
19 | Cc1ccc(-c2nccn2C)cc1NC(=O)c1ccc(OCc2cc(N3CCN(C)CC3)ccc2C#N)cc1 [Example 115, 4-(2-cyano-5-(4-methylpiperazin-1-yl)benzyloxy)-N-(2-methyl-5-(1-methyl-1H-imidazol-2-yl)phenyl)benzamide] | 82.8 | 
20 | Cc1ccc(-c2nc(-c3cccnc3)c[nH]2)cc1NC(=O)c1ccc(OCc2ccccn2)cc1 [Example 84, N-[2-methyl-5-(4-pyridin-3-yl-1H-imidazol-2-yl)phenyl]-4-(pyridin-2-ylmethoxy)benzamide] | 79.6 | 
21 | Cc1ccc(-c2cnc(C)n2C)cc1NC(=O)c1ccc(OCc2ccccn2)cc1 [Example 23, N-[5-(1,2-dimethyl-1H-imidazol-5-yl)-2-methylphenyl]-4-(pyridin-2-ylmethoxy)benzamide] | 73.6 | 
22 | Cc1cnc(-c2ccc(C)c(NC(=O)c3ccc(OCc4ccccn4)cc3)c2)[nH]1 [Example 25, N-[2-methyl-5-(5-methyl-1H-imidazol-2-yl)phenyl]-4-(pyridin-2-ylmethoxy)benzamide] | 79.5 | 
23 | Cc1ccc(-c2ncc[nH]2)cc1NC(=O)c1ccc(OCc2ncccc2Br)cc1 [Example 120, 4-[(3-bromopyridin-2-yl)methoxy]-N-[5-(1H-imidazol-2-yl)-2-methylphenyl]benzamide] | 78.3 | 
24 | Cc1ccc(-c2ncc[nH]2)cc1NC(=O)c1ccc(OCc2ccc(F)cc2)cc1 [Example 59, 4-[(4-Fluorophenyl)methoxy]-N-[5-(1H-imidazol-2-yl)-2-methylphenyl]benzamide] | 82.5 | 
25 | Cc1ccc(-c2ccnn2C)cc1NC(=O)c1ccc(OCc2ccccn2)cc1 [Example 34, N-[2-methyl-5-(2-methylpyrazol-3-yl)phenyl]-4-(pyridin-2-ylmethoxy)benzamide] | 69.4 | 
26 | Cc1ccc(-c2ncc[nH]2)cc1NC(=O)c1ccc2c(c1)OCCN2C [Example 149, N-[5-(1H-imidazol-2-yl)-2-methyl-phenyl]-2-methyl-5-oxa-2-azabicyclo[4.4.0]deca-7,9,11-triene-8-carboxamide] |  | 63.4
27 | Cc1ccc(-c2nc(-c3nccs3)c[nH]2)cc1NC(=O)c1ccc(OCc2ccccn2)cc1 [Example 82, N-{2-methyl-5-[4-(1,3-thiazol-2-yl)-1H-imidazol-2-yl]phenyl}-4-(pyridin-2-ylmethoxy)benzamide] | 68.6 | 
28 | Cc1ccc(-c2ncc(Cn3cccn3)s2)cc1NC(=O)c1ccc(OCc2ccccn2)cc1 [Example 4, N-[2-methyl-5-[5-(pyrazol-1-ylmethyl)1,3-thiazol-2-yl]phenyl]-4-(pyridin-2-ylmethoxy)benzamide] | 65.4 | 
